Columns and labels:
[1] = tested on: striatal DA levels; experiment: Striatal dopamine and metabolite levels by HPLC-ECD in wild type mice; type: in vivo, mouse
Protocol: 4 hours after dosing, animals were killed by cervical dislocation, brains were removed, and the striata were dissected on ice. The samples were immediately frozen and stored at −80° C. until use. The tissues were processed for the analysis by high performance liquid chromatography (HPLC) with an electrochemical detector (ECD) (Emmanouil et al., 2006). The dissected tissues were weighed, homogenized, and deproteinized in 0.2N perchloric acid solution containing 7.9 mM Na2S2O5 and 1.3 mM Na2EDTA. The homogenate was centrifuged at 37,000×g for 30 minutes, and the supernatant was stored at −80° C. until assayed. A reverse-phase ion-pair chromatography was used in all analyses, and the mobile phase consisted of an acetonitrile-50 mM phosphate buffer at pH 3.0, containing 5-octylsulfate sodium salt (300 mg/L) as the ion-pair reagent and (20 mg/L) Na2EDTA. Reference standards were prepared in 0.2 N perchloric acid solution containing 7.9 mM Na2S2O5 and 1.3 mM Na2EDTA. Samples were quantified by comparison of the areas under the peaks with those of reference standards using HPLC software (Chromatography Station for Windows™, Watrex International Inc., San Francisco, Calif.). […]

[2] = tested on: C57/BL6 mice; experiment: Porsolt forced swim test after chronic mild stress; type: in vivo, mouse; settings: CMS mice, 2×10 mg/kg IP spaced 2 hours apart, 4 hours after last injection
Protocol: The chronic mild stress (CMS) procedure was applied semi randomly to each mouse and consisted of a variety of unpredictable mild environmental, social and physical stressors, including confinement in a small tube (1 hours), an empty cage without sawdust (15 hours), water and food deprivation (15 hours), food restriction (approximately 50 mg of food pellets, 3 hours), cage tilted at 45° (1-3 hours), damp sawdust (approximately 200 ml of water per 100 g of sawdust, 3 hours), paired housing in damp sawdust (18 hours), reversal of the light/dark cycle, 2-hour light/dark succession every 30 minutes, as well as light (15-17 hours) and dark (4-6 hours). Compound 3 (2×10 mg/kg spaced 2 hours apart) or vehicle control (Ethanol:PG:Saline, 10:30:60), was administered IP to mice. 4 hours after the last injection, mice were evaluated in the Porsolt forced swim test. […] Recorded behaviors for “floating” (the mouse is completely still in the water, except for isolated movements to right itself) and “swimming” (movement of all four legs with body aligned horizontally in the water) were measured (in seconds) for each mouse.

[3] = tested on: ASYN transgenic mice; experiment: Striatal dopamine levels in ASYN transgenic mice by HPLC; type: in vivo, mouse; settings: single IP 10 mg/kg, vs vehicle
Protocol: Given the role of Nurr1:RXRα activation in the transcriptional regulation of DA biosynthesis genes, we tested whether compound 3 could increase DA levels in wt and ASYN transgenic mice (Tofaris et al. J. Neurosci. 26:3942-3950, 2006), which display reduced striatal DA levels after reaching adulthood. […] Aiming to model PD based on human genetic data, we also tested whether compound 3 could increase DA levels in ASYN transgenic mice. A single IP injection of compound 3 (10 mg/kg) was able increase striatal DA (t test p=0.01069) and DA metabolite levels in ASYN transgenics as well (FIG. 75C) in comparison to mice receiving vehicle.

[4] = tested on: Neuro2A cells; experiment: MPP+ induced toxicity in Neuro2A cells; type: cell-based
Protocol: MPP+, eradicates approximately 75% of the cells in 24 hours. […] Naive Neuro2A cells (FIG. 2A) or SH-SY5Y neuroblastoma cells FIG. 2B,C) were cultured in RPMI 1640, 10% fetal bovine serum at 37° C. Cells were pretreated with compound 3 for 12-24 h. Subsequent change of culture medium with addition of 0, 1, 2 and 4 mM MPP+ induced cell death. MTT assays determined the relative number of surviving cells FIG. 2D).

C=CCc1c(N(C)c2ccc(C(=O)O)cc2)nc(-c2ccccc2)nc1C(F)(F)F [Example 3, 4-((5-allyl-2-phenyl-6-(trifluoromethyl)pyrimidin-4-yl)(methyl)amino)benzoic acid]
increase of striatal DA levels and dopamine metabolite (DOPAC and HVA) levels ([1]; wild type C57/BL6 mice, single IP 20 mg/kg, 4 hours after dosing): 33%
striatal DA and DA metabolite levels ([1]; wt mice, single IP 10 mg/kg, 4 hours): increased
decrease of floating time [2]: 61.48%
increase of swimming time [2]: 31.7%
striatal DA and DA metabolite levels [3]: increase
protection from MPP+ induced toxicity [4]: protects
